Tested on: MCF-7 cells
Assay: Western blot / real time PCR of apoptotic markers and signalling proteins
Assay type: cell-based, human
Conditions: MCF-7, 5 and 10 μM KR12C, 24 h
Experimental: To observe the effect of KR12C in c-MYC protein expression, and to decipher the peptide-driven signaling pathway to trigger apoptosis within cancer cells, we have performed an array of Western Blot experiments. MCF-7 cells are seeded at a density of 7 × 10^5 cells per well into 60 mm dishes and allowed to attach overnight. Next day cells are serum starved for 18 h. At the end of 18 h fresh medium supplemented with 2% FBS +1% antibiotic and anti-mycotic is added. Then cells are treated with 5 μM and 10 μM KR12C. Recombinant VEGF is added at a concentration of 200 ng/ml of medium either alone or in combination with 10 μM KR12C. Cells are harvested after 24 hrs of treatment.
Whole cell lysate is prepared using the Cell Lysis Buffer (Cell Signalling Technologies) according to the manufacturer's protocol supplemented with Phenylmethylsulfonyl fluoride (PMSF) (Merck) and Protease Inhibitory Cocktail (PIC) (Merck). 40 μg of protein is separated using sodium dodecyl sulfate polyacrylamide gel electrophoresis (SDS-PAGE). (4% stacking gel and 12–15% resolving gel). Samples are transferred to polyvinylidene fluoride (PVDF) membranes (Immobilon-P, EMD Millipore). Membranes were blocked using 5% milk in Tris-buffered saline (TBS) with Tween 20 (Amresco) for 45 min at room temperature. Membranes are then incubated overnight at 4°C with the following antibodies: anti-c-Myc (Rabbit polyclonal, 1:500 dil. Cell Signalling Technology Inc.), Mouse anti-Bcl2 (Mouse monoclonal, 1:250 dil. Santacruz Biotechnology Inc.), anti E2F1, anti VEGF-A, anti-P53, anti-APAF1, anti-Caspase 8, anti-PARP (Abcam), anti-β-actin (Mouse monoclonal, 1:10 000 dil. Santacruz Biotechnology Inc.). Next membranes are incubated with peroxidase conjugated anti-rabbit IgG raised in Goat (Sigma, 1:8000 dil.) and peroxidase conjugated anti-mouse IgG raised in Rabbit (Sigma, 1:10 000 dil.) for 2 h at room temperature. Target proteins are visualised on membranes using Clarity TM Western ECL substrate (Bio-rad) and images are captured using ChemiDoc MP system with Image Lab™ software for PC version 6.0 (Bio-rad).

With N – KRIVKLIKKWLR – C [KR12C] the “expression of p53, cleaved PARP, caspase 8 and APAF-1” value (western blot) was “significant upregulation”, the “BCL-2 expression at transcription and translation level” value (western blot and real time PCR) was “suppressed” and the “VEGF-A and E2F-1 expression” value (western blot and real time PCR) was “significantly suppressed”.
